Data published in patent publication US20100197616A1, “Proliferation inhibitor of helicobacter pylori including alpha-n-acetyl-glucosaminyl bond-containing monosaccharide derivatives” (THE NOGUCHI INSTITUTE, priority 2007, published 2010).

Assays:
[1] = Decomposition in culture mediums and the stomach; details: within the culture mediums and the stomach
H. pylori (ATCC 43504) = test: H. pylori-proliferation inhibitory effect (OD 600 nm versus negative control); format: cell-based, Helicobacter pylori
Description: The effect of GlcNAc alpha-O-Et on H. pylori was confirmed according to the following procedures. Bacterial cells of H. pylori (ATCC 43504) stored in a brucella broth culture medium frozen at −80° C. were cultured in the same culture medium (3 mL) supplemented with 10% equine serum at 35° C. in the presence of 15% CO2 for 40 hours according to the shaking culture technique, the movement of bacterial cells was observed under a microscope and non-coccoid type bacterial cells of H. pylori were recovered. The culture medium was inspected for the OD values at 600 nm, followed by the dilution thereof with Muller-Hinton culture medium supplemented with 5.5% equine serum such that the number of bacterial cells present therein was equal to 4×10^7, and 3 mL thereof in total was cultured at 35° C. in the presence of 15% CO2 for 24 hours according to the shaking culture technique, followed by the confirmation by a microscope to thus give an H. pylori-containing culture medium (bacterial cell density: 2×10^7/mL) used in the test for the confirmation of the effect of the foregoing compound. On the other hand, there were prepared Muller-Hinton culture mediums (free of any bacterial cell of H. pylori) each containing 902.6 μM to 14.4 mM of the foregoing GlcNAc alpha-O-Et and supplemented with 5% equine serum, each of the resulting culture mediums was added to the foregoing H. pylori-containing culture medium in a mixing ratio of 1:1 (by volume) (total volume: 100 μL each; on a 96-well plate), followed by the mixing thereof and the subsequent cultivation at 35° C. in the presence of 15% CO2 for 96 hours. After the cultivation thereof over a predetermined period of time, the bacterial cell density thus proliferated was determined by the determination of the OD values at 600 nm, followed by the comparison of the result observed for the sample to which the candidate compound was added with that observed for the negative control free of any candidate compound (the control depicted in FIG. 1) to thus evaluate the proliferation inhibitory effect of the compound. In this respect, 1 U herein means 2.9 μmol/mL. The effect of GlcNAc alpha-cholestanol on H. pylori was confirmed according to the following procedures. Bacterial cells of H. pylori (ATCC 43504) stored in a brucella broth culture medium frozen at −80° C. were cultured in the same culture medium (3 mL) supplemented with 10% equine serum at 35° C. in the presence of 15% CO2 for 40 hours according to the shaking culture technique, the movement or behavior of bacterial cells was observed under a microscope and non-coccoid type bacterial cells of H. pylori were recovered. […]

Row | decomposition (stability) [1] | Structure (SMILES) | proliferation ability of H. pylori (H. pylori (ATCC 43504); culture medium containing not less than 1.8 mM) | inhibition of the proliferation of H. pylori (H. pylori (ATCC 43504); culture medium containing not less than 7.2 mM) | H. pylori proliferation inhibited (H. pylori (ATCC 43504); not less than 625 mU/mL (1.8 mM), FIG. 1, cultivation up to 96 hours) | inhibition at 180 µM (H. pylori (ATCC 43504); Helicobacter pylori, ATCC43504, at least 62.5 mU/mL (180 μM, nominal, insoluble fraction filtered off), within 1.5 to 2 days, FIG. 2) [%]
1 | never decomposed | CCO[C@H]1OC(CO)[C@@H](O)[C@H](O)C1NC(C)=O (stereo partly drawn) [Compound 1, Ethoxy 2-acetamide-2-deoxy-N-acetyl-alpha-D-glucosaminide] | not more than 50% | completely inhibit | not less than 50% | –
2 | – | CC(=O)NC1[C@@H](O[C@H]2CC[C@@]3(C)C(CCC4C3CC[C@@]3(C)C4CC[C@@H]3[C@H](C)CCCC(C)C)C2)OC(CO)[C@@H](O)[C@@H]1O (stereo partly drawn) [Compound 2, 3-beta-Cholestanyl-2-Acetamide-2-Deoxy-N-Acetyl-alpha-D-Glucosaminide] | – | – | – | 40 to 50
